Assay results taken from paper PMC3025903 (Molecular Pain, 2010).

What was measured:
[1] = tested on: Sprague-Dawley rats; details: rat, in vivo, iv; SEM
[2] = tested on: Sprague-Dawley rats; details: rat, in vivo, iv
[3] = biological target: T1, human N-type Ca^2+ channels stably expressed in HEK293 cells (C2D7 cells) (Homo sapiens, UniProt Q00975); experiment: cell-based
T1 construct: expressed in transfected cells
T1 sequence (Q00975 whole entry, looked up): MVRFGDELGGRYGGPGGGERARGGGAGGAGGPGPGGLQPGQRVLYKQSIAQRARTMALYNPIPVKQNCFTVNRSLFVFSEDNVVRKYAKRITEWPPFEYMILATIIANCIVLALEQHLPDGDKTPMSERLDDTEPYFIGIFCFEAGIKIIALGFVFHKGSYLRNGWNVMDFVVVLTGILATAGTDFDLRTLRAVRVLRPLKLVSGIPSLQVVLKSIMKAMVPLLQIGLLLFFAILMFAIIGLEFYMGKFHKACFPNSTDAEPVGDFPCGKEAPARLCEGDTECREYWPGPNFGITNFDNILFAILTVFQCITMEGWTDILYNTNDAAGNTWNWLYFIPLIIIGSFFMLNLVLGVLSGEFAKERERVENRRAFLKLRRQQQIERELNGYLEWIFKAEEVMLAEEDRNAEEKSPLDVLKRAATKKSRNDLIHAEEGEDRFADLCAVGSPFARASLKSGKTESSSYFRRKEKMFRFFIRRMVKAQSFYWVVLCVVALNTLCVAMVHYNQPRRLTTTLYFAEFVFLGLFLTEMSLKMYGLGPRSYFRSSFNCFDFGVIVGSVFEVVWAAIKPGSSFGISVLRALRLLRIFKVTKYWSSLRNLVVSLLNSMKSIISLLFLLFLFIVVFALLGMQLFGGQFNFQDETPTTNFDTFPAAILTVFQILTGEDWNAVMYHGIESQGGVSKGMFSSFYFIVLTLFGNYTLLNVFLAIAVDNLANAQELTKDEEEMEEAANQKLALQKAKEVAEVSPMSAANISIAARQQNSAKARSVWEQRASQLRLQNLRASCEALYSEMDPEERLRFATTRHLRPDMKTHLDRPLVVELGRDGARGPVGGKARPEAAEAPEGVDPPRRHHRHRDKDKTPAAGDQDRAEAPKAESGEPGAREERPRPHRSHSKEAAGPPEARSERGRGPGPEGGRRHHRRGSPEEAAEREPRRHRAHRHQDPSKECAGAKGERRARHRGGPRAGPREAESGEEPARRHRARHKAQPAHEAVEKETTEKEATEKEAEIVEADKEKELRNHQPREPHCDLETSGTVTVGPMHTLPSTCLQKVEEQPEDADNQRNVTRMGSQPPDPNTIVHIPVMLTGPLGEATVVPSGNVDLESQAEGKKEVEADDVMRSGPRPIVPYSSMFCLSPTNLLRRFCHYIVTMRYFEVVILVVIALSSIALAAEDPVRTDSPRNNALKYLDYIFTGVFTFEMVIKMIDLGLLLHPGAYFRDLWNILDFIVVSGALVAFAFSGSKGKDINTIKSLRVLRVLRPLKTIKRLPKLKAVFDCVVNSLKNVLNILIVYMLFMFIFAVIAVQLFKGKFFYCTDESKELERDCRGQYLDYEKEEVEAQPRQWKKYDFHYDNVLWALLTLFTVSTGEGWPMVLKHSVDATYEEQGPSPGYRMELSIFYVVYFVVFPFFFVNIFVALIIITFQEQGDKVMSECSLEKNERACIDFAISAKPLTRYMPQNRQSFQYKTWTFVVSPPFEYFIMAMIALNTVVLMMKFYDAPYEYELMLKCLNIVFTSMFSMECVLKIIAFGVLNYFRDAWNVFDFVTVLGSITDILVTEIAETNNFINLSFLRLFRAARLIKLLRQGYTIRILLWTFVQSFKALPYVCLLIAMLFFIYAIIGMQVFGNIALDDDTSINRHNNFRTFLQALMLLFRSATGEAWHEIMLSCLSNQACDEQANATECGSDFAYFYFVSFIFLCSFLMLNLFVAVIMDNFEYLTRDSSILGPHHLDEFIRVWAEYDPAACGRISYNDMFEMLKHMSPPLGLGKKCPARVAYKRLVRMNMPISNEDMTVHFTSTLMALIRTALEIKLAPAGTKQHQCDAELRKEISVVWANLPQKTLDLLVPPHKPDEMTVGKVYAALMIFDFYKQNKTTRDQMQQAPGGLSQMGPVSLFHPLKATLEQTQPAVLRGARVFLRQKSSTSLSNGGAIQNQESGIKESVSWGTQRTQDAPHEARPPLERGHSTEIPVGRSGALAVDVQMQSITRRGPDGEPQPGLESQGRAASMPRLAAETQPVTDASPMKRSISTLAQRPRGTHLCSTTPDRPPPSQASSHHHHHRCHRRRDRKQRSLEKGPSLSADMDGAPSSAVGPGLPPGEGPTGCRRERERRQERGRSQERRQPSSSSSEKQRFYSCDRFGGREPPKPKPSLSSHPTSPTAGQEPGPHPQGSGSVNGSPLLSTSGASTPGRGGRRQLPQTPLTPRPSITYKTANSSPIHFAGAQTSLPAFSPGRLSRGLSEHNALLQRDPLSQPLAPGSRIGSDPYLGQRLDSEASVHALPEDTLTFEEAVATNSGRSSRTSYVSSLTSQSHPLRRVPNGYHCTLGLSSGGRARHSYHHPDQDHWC

Row | Compound | mean arterial pressure after 60 min [1] [mmHg] | mean arterial pressure within 3 min after injection [1] [mmHg] | mean blood pressure 5 min after administration [2] [mmHg] | mean blood pressure after 5 h [2] | IC50 [3] [nM] | block of N-type Ca2+ currents [3] [%] | steady-state level to which the currents recovered after washout [3] [%]
1 | CC[C@H](C)[C@@H]1NC(=O)[C@H](CCCNC(=N)N)NC(=O)[C@H](CO)NC(=O)[C@@H]2CSSC[C@@H]3NC(=O)[C@H](CO)NC(=O)CNC(=O)[C@H]([C@@H](C)O)NC(=O)[C@H](CSSC[C@H](N)C(=O)N[C@@H](CCCCN)C(=O)NCC(=O)N[C@@H]([C@@H](C)O)C(=O)NCC(=O)N[C@@H](CCCCN)C(=O)N[C@@H](CO)C(=O)N2)NC(=O)[C@H](CSSC[C@@H](C(N)=O)NC(=O)[C@H](CCCCN)NC(=O)CNC(=O)[C@H](CO)NC(=O)[C@H](CCCNC(=N)N)NC3=O)NC(=O)[C@H](CC(N)=O)NC(=O)[C@H](Cc2ccc(O)cc2)NC(=O)[C@H](C)NC1=O [CTx-FVIA, ω-conotoxin FVIA] | 79.7 ± 4.1 | 56.4 ± 1.0 | 78.9 ± 3.1 | nearly recovered | 11.5 ± 1.4 | 91.25 ± 1.8 | 78.4 ± 5.8
2 | CSCC[C@@H]1NC(=O)[C@H](CC(C)C)NC(=O)[C@H](CCCNC(=N)N)NC(=O)[C@H](CO)NC(=O)[C@@H]2CSSC[C@@H]3NC(=O)[C@H](CO)NC(=O)CNC(=O)[C@H]([C@@H](C)O)NC(=O)[C@H](CSSC[C@H](N)C(=O)N[C@@H](CCCCN)C(=O)NCC(=O)N[C@@H](CCCCN)C(=O)NCC(=O)N[C@@H](C)C(=O)N[C@@H](CCCCN)C(=O)N2)NC(=O)[C@H](CSSC[C@@H](C(N)=O)NC(=O)[C@H](CCCCN)NC(=O)CNC(=O)[C@H](CO)NC(=O)[C@H](CCCNC(=N)N)NC3=O)NC(=O)[C@H](CC(=O)O)NC(=O)[C@H](Cc2ccc(O)cc2)NC1=O [CTx-MVIIA, ω-Conotoxin (CTx)-MVIIA, reference compound] | 65.3 ± 1.9 | 57.3 ± 3.1 | 77.5 ± 1.7 | 87.4 ± 2.6 mmHg |  | 87.5 ± 1.9 | 19.8 ± 3.8
